According to patent US20210290651A1, “METHODS OF TREATING VIRAL INFECTIONS USING INHIBITORS OF NUCLEOTIDE SYNTHESIS PATHWAYS” (priority 2020, published 2021):
Read-outs that look alike come from different tables or passages of the source.

Legend:
[1] = system: Yellow Fever; details: Vero (monkey kidney); cited from earlier work
[2] = system: Zika; details: Vero76 (monkey kidney); cited from earlier work
[3] = system: SARS-CoV-2; experiment: microbe, parasite or virus in culture; format: cell-based
[4] = in vivo
[5] = system: CYP; experiment: CYP inhibition
[6] = system: HIV1; details: HIV1, TZM-bl(human cervical tumor); cited from earlier work
[7] = system: solid tumor malignancies; details: 5-day period followed by 3-week gap, or once per week for three weeks followed by 1-week gap; cited from earlier work
[8] = system: Influenza A H1N1(BIRFLU); details: MDCK (canine kidney); cited from earlier work
[9] = system: FMDV (O/MY98/BY/2010); details: cited from earlier work
[10] = system: Ebola; details: HeLa (human cervical tumor); cited from earlier work
[11] = system: AML; details: cited from earlier work
[12] = system: Influenza A H1N1(BIRFLU); details: A549 (human alveolar basal epithelial); cited from earlier work
[13] = system: Influenza A H1N1(California); details: MDCK (canine kidney); cited from earlier work
[14] = system: Influenza A H1N1 (New Caledonia); details: 16HBE (human bronchial epithelial); cited from earlier work
[15] = system: Influenza A H3N2; details: Influenza A H3N2, MDCK (canine kidney); cited from earlier work
[16] = Cytotoxicity in H1-HeLa cells (XTT); details: human, H1-HeLa cells (CRL-1958)
[17] = system: HRV1A strain 2060; experiment: Rhinovirus antiviral assay, inhibition of virus-induced cell killing (XTT) in H1-HeLa cells; format: cell-based; details: Enterovirus
[18] = system: TZM-bl(human cervical tumor); details: HIV1 row; cited from earlier work
[19] = in vitro; details: monkey, CC50, Vero E6
[20] = system: Vero (monkey kidney); details: cited from earlier work
[21] = system: DHODH
[22] = in vivo; remark: listed apart in the source
[23] = system: IBRS-2 (swine kidney); details: cited from earlier work
[24] = molecular target: DHODH (Homo sapiens, UniProt Q02127); details: concentrations >1 μM
DHODH (Homo sapiens, UniProt Q02127), sequence (Q02127 whole entry): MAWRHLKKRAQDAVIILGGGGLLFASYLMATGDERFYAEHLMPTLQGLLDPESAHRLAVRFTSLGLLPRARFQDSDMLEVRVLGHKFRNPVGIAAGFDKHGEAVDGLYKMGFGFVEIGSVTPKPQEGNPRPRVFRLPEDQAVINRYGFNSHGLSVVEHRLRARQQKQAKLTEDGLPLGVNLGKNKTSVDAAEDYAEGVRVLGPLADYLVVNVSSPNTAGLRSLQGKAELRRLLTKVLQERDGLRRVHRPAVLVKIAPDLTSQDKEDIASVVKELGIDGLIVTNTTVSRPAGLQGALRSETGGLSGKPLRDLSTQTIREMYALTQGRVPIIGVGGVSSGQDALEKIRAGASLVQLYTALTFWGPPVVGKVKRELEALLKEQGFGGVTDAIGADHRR

[25] = system: Primary Human Fibroblasts; details: CMV row; cited from earlier work
[26] = system: A549 (human alveolar basal epithelial); details: A549, Dengue row; cited from earlier work
[27] = system: acute myeloid leukemia (AML); experiment: Clinical response of patients with AML to brequinar-containing composition; format: in vivo, human
[28] = system: HuH7 (human hepatocellular carcinoma); details: cited from earlier work
[29] = system: Influenza B (Brisbane); details: MDCK (canine kidney); cited from earlier work
[30] = system: FMDV (A/GD/MM/2013); details: cited from earlier work
[31] = system: Dengue; details: A549 (human alveolar basal epithelial); cited from earlier work
[32] = system: A549 (human alveolar basal epithelial); details: A549, H1N1(BIRFLU) row; cited from earlier work
[33] = system: MDCK (canine kidney); details: H1N1(BIRFLU) row; cited from earlier work
[34] = system: 16HBE (human bronchial epithelial); details: H1N1 (New Caledonia) row; cited from earlier work
[35] = Adverse events in subjects receiving brequinar intravenously once a week; details: IV once a week, 209 subjects
[36] = system: Vero76 (monkey kidney); details: Vero76, Zika row; cited from earlier work
[37] = system: A549 or HEp-2 (human epithelial); details: A549 or HEp-2, RSV row; cited from earlier work
[38] = system: VSV; details: HuH7 (human hepatocellular carcinoma); cited from earlier work
[39] = system: Respiratory Syncytial (RSV); details: A549 or HEp-2 (human epithelial); cited from earlier work
[40] = in vivo; details: rodents
[41] = system: CMV; details: Primary Human Fibroblasts; cited from earlier work
[42] = system: RNA virus; experiment: Daily brequinar for five days in subject infected with an RNA virus (Example 19); format: in vivo; details: single daily dose for five consecutive days, first peak in brequinar level
Description: The mechanism by which administration of a DHODH inhibitor according to a daily dosing regimen inhibits viral replication is illustrated below. […] Throughout the course of the dosing regimen, levels of intracellular pyrimidines, such as uridine, and viral replication are measured.

Structure (SMILES): Cc1c(-c2ccc(-c3ccccc3F)cc2)nc2ccc(F)cc2c1C(=O)O [brequinar, 6-fluoro-2-(2′-fluoro-1,1′ biphenyl-4-yl)-3-methyl-4-quinoline carboxylic acid]
- EC50 [1]: 20 nM
- EC50 [2]: 80 nM
- E(Max) [3]: 88.2
- lowering of the EC50 of remdesivir by brequinar [3]: > 40 fold
- EC90 ([3]; Severe acute respiratory syndrome coronavirus 2, Vero C1008): 345 nM
- Emax ([3]; Severe acute respiratory syndrome coronavirus 2, Vero C1008, Vero E6, read-out: maximal inhibitory activity (Emax) compared to the no infection control): 88.2%
- cumulative effect of repeated doses [4]: No cumulative effective of repeated doses
- CYP inhibition [5]: Does not inhibit CYP
- EC50 [6]: 40 nM
- efficacy in solid tumor malignancies [7]: ineffective
- EC50 [8]: 580 nM
- EC50 [9]: 30000 nM
- EC50 [10]: 100 nM
- toxicity ([11]; daily administration of high doses): weight loss, anemia, and thrombocytopenia
- leukemia-initiating cell activity ([11]; only when elevated plasma levels are maintained for extended periods): decreases leukemia-initiating cell activity
- EC50 [12]: 140 nM
- EC50 [13]: 780 nM
- EC50 [14]: 140 nM
- EC50 [15]: 620 nM
- CC50 at 3 days [16]: 300 nM
- EC50 [17]: 50 nM
- CC50 [18]: > 30000 nM
- CC50 at 3 days [19]: > 50000 nM
- CC50 [20]: > 50000 nM
- DHO plasma level threshold achieved ([21]; human, in vivo): 133 ng/mL
- time to achieve DHO plasma level threshold ([21]; patient with AML of Example 14): less than 2 hours
- equivalence of oral and IV formulations [22]: oral and IV formulations are equivalent
- CC50 [23]: 100000 nM
- DHODH inhibition [24]: almost completely inhibited
- CC50 [25]: > 50000 nM
- CC50 [26]: > 5000 nM
- response ([27]; first patient (Example 12): reduction in bone marrow blast count, improved extramedullary hematopoiesis, more differentiated peripheral blasts): positive response
- response ([27]; patient of Example 14: trend towards differentiation of peripheral blasts): positive response
- response ([27]; second patient (Example 13): lowering of peripheral blasts, increase in absolute neutrophil count, greater differentiation): positive response
- CC50 [28]: > 25000 nM
- EC50 [29]: 250 nM
- EC50 [30]: < 3000 nM
- EC50 [31]: 78 nM
- CC50 [32]: > 50000 nM
- CC50 [33]: > 50000 nM
- CC50 [34]: > 50000 nM
- Infection: No. of Patients [35]: 7
- Infection: No. of Patients Experiencing the AE, Max Grade 1 [35]: 4
- Infection: No. of Patients Experiencing the AE, Max Grade 2 [35]: 3
- Infection: No. of Patients Experiencing the AE, Max Grade 3 [35]: 0
- Infection: No. of Patients Experiencing the AE, Max Grade 4 [35]: 0
- Infection: Percent [35]: 3.3%
- CC50 [36]: > 50000 nM
- CC50 [37]: > 10000 nM
- EC50 [38]: 14 nM
- EC50 [39]: 53 nM
- Kp [40]: ~0.5
- EC50 [41]: 800 nM
- intracellular pyrimidine levels [42]: dramatic decrease in the intracellular pyrimidine pool
